Reference: the supplement of paper PMC10307832

Key:
Assay in all cases: relative viability (nuclei count vs DMSO), 5 days (fraction); higher = more cells survive
[1] = test system: CAL-12T
In short: (§1)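 Relative viability is defined as nuclei in treated wells over nuclei in vehicle wells. Duplicate plates were run and medians reported. Lung cancer cell lines in 1536-well plates were dosed by pin tool one day after seeding, with one drug or with a fixed anchor-drug dose plus five library-drug doses (not always all listed) in √10 steps, and nuclei were counted after 5 days.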

[2] = test system: NCI-H1666
In short: as §1

[3] = test system: NCI-H1975
In short: as §1

[4] = test system: NCI-H1755
In short: as §1

[5] = test system: UMC-11
In short: as §1

[6] = test system: ChaGo-K-1
In short: as §1

[7] = test system: HCC-15
In short: as §1

[8] = test system: COR-L 105
In short: as §1

[9] = test system: NCI-H2126
In short: as §1

[10] = test system: NCI-H3122
In short: as §1

[11] = test system: NCI-H322M
In short: as §1

[12] = test system: NCI-H441
In short: as §1

[13] = test system: HCC-78
In short: as §1

[14] = test system: NCI-H2023
In short: as §1

[15] = test system: EPLC-272H
In short: as §1

[16] = test system: HOP-62
In short: as §1

[17] = test system: LXF-289
In short: as §1

[18] = test system: NCI-H1915
In short: as §1

[19] = test system: EMC-BAC-2
In short: as §1

[20] = test system: NCI-H2085
In short: as §1

`COc1cc2nccc(Oc3ccc(NC(=O)Nc4cc(C)on4)c(Cl)c3)c2cc1OC` [Tivozanib] + CC1(C)CCC(c2ccc(Cl)cc2)=C(CN2CCN(c3ccc(C(=O)NS(=O)(=O)c4ccc(N[C@H](CCN5CCOCC5)CSc5ccccc5)c(S(=O)(=O)C(F)(F)F)c4)cc3)CC2)C1 [Navitoclax] (partner 0.5 µM) was tested, and the relative viability ([1]; first compound 0.005 µM) was 1.11, the relative viability ([1]; first compound 0.01581 µM) was 1.19 and the relative viability ([1]; first compound 0.05 µM) was 1.18. For the same compound, the relative viability ([1]; first compound 0.5 µM) was 0.94, the relative viability ([2]; first compound 0.005 µM) was 0.993 and the relative viability ([2]; first compound 0.01581 µM) was 0.96. For the same compound, the relative viability ([2]; first compound 0.05 µM) was 1.02, the relative viability ([2]; first compound 0.1581 µM) was 0.891 and the relative viability ([2]; first compound 0.5 µM) was 0.867. The relative viability ([3]; first compound 0.005 µM) was 1.1, the relative viability ([3]; first compound 0.01581 µM) was 1.19 and the relative viability ([3]; first compound 0.05 µM) was 1.09. The relative viability ([3]; first compound 0.1581 µM) was 1.06, the relative viability ([3]; first compound 0.5 µM) was 0.884 and the relative viability ([4]; first compound 0.005 µM) was 0.953. For the same compound, the relative viability ([4]; first compound 0.01581 µM) was 0.949, the relative viability ([4]; first compound 0.05 µM) was 1.01 and the relative viability ([4]; first compound 0.1581 µM) was 0.932. For the same compound, the relative viability ([4]; first compound 0.5 µM) was 0.916, the relative viability ([5]; first compound 0.005 µM) was 0.314 and the relative viability ([5]; first compound 0.01581 µM) was 0.322. For the same compound, the relative viability ([5]; first compound 0.05 µM) was 0.306, the relative viability ([5]; first compound 0.5 µM) was 0.329 and the relative viability ([6]; first compound 0.005 µM) was 0.846. For the same compound, the relative viability ([6]; first compound 0.01581 µM) was 1.03, the relative viability ([6]; first compound 0.05 µM) was 0.802 and the relative viability ([6]; first compound 0.1581 µM) was 0.645. For the same compound, the relative viability ([6]; first compound 0.5 µM) was 0.799, the relative viability ([7]; first compound 0.005 µM) was 0.719 and the relative viability ([7]; first compound 0.01581 µM) was 0.676. It also gave a relative viability ([7]; first compound 0.05 µM) of 0.67, a relative viability ([7]; first compound 0.1581 µM) of 0.742 and a relative viability ([7]; first compound 0.5 µM) of 0.728. It also gave a relative viability ([8]; first compound 0.01581 µM) of 0.835, a relative viability ([8]; first compound 0.05 µM) of 0.829 and a relative viability ([8]; first compound 0.1581 µM) of 1.17. It also gave a relative viability ([8]; first compound 0.5 µM) of 0.743, a relative viability ([9]; first compound 0.005 µM) of 0.842 and a relative viability ([9]; first compound 0.01581 µM) of 0.818. It also gave a relative viability ([9]; first compound 0.05 µM) of 0.963, a relative viability ([9]; first compound 0.1581 µM) of 0.635 and a relative viability ([9]; first compound 0.5 µM) of 0.857. For the same compound, the relative viability ([10]; first compound 0.005 µM) was 1.03, the relative viability ([10]; first compound 0.01581 µM) was 1 and the relative viability ([10]; first compound 0.05 µM) was 1.07. It also gave a relative viability ([10]; first compound 0.1581 µM) of 1.03, a relative viability ([10]; first compound 0.5 µM) of 1.03 and a relative viability ([11]; first compound 0.005 µM) of 1.23. The relative viability ([11]; first compound 0.01581 µM) was 1.09, the relative viability ([11]; first compound 0.05 µM) was 1.28 and the relative viability ([11]; first compound 0.1581 µM) was 1.22. For the same compound, the relative viability ([11]; first compound 0.5 µM) was 1.14, the relative viability ([12]; first compound 0.005 µM) was 0.473 and the relative viability ([12]; first compound 0.01581 µM) was 0.424. It also gave a relative viability ([12]; first compound 0.05 µM) of 0.747, a relative viability ([12]; first compound 0.1581 µM) of 0.566 and a relative viability ([12]; first compound 0.5 µM) of 0.545. It also gave a relative viability ([13]; first compound 0.005 µM) of 0.656, a relative viability ([13]; first compound 0.01581 µM) of 0.808 and a relative viability ([13]; first compound 0.05 µM) of 0.765. For the same compound, the relative viability ([13]; first compound 0.1581 µM) was 0.756, the relative viability ([13]; first compound 0.5 µM) was 0.677 and the relative viability ([14]; first compound 0.005 µM) was 0.909. The relative viability ([14]; first compound 0.01581 µM) was 1.02, the relative viability ([14]; first compound 0.05 µM) was 1.04 and the relative viability ([14]; first compound 0.1581 µM) was 0.962. The relative viability ([14]; first compound 0.5 µM) was 0.954, the relative viability ([15]; first compound 0.005 µM) was 0.916 and the relative viability ([15]; first compound 0.01581 µM) was 1.25. It also gave a relative viability ([15]; first compound 0.05 µM) of 1.34, a relative viability ([15]; first compound 0.1581 µM) of 0.967 and a relative viability ([15]; first compound 0.5 µM) of 0.911. For the same compound, the relative viability ([16]; first compound 0.005 µM) was 0.996, the relative viability ([16]; first compound 0.01581 µM) was 1.08 and the relative viability ([16]; first compound 0.05 µM) was 1.07. The relative viability ([16]; first compound 0.1581 µM) was 1.12, the relative viability ([16]; first compound 0.5 µM) was 0.844 and the relative viability ([17]; first compound 0.005 µM) was 0.916. The relative viability ([17]; first compound 0.01581 µM) was 0.942, the relative viability ([17]; first compound 0.05 µM) was 0.915 and the relative viability ([17]; first compound 0.1581 µM) was 1.01. It also gave a relative viability ([17]; first compound 0.5 µM) of 0.926, a relative viability ([18]; first compound 0.005 µM) of 0.756 and a relative viability ([18]; first compound 0.01581 µM) of 0.765. It also gave a relative viability ([18]; first compound 0.05 µM) of 0.806, a relative viability ([18]; first compound 0.1581 µM) of 0.838 and a relative viability ([18]; first compound 0.5 µM) of 0.771. The relative viability ([19]; first compound 0.005 µM) was 1.27, the relative viability ([19]; first compound 0.01581 µM) was 1.11 and the relative viability ([19]; first compound 0.05 µM) was 1.21. For the same compound, the relative viability ([19]; first compound 0.1581 µM) was 1.14, the relative viability ([19]; first compound 0.5 µM) was 1.24 and the relative viability ([20]; first compound 0.005 µM) was 1.07. The relative viability ([20]; first compound 0.01581 µM) was 1.1, the relative viability ([20]; first compound 0.05 µM) was 1.17 and the relative viability ([20]; first compound 0.1581 µM) was 1.04. The relative viability ([20]; first compound 0.5 µM) was 1.14.
